Measurements published in patent US10537552B2, “Substituted 5-hydroxyoxindoles and their use as analgesics and fever reducers” (CARAFE DRUG INNOVATION, LLC, priority 2015, dated 2020).

Experiments:
[1] = target: T1, COX2 (h) (Homo sapiens, UniProt P35354); experiment: COX2 enzyme assay; type: biochemical
T1 construct: host or cells: Sf9 cells
T1 sequence (P35354 18-604): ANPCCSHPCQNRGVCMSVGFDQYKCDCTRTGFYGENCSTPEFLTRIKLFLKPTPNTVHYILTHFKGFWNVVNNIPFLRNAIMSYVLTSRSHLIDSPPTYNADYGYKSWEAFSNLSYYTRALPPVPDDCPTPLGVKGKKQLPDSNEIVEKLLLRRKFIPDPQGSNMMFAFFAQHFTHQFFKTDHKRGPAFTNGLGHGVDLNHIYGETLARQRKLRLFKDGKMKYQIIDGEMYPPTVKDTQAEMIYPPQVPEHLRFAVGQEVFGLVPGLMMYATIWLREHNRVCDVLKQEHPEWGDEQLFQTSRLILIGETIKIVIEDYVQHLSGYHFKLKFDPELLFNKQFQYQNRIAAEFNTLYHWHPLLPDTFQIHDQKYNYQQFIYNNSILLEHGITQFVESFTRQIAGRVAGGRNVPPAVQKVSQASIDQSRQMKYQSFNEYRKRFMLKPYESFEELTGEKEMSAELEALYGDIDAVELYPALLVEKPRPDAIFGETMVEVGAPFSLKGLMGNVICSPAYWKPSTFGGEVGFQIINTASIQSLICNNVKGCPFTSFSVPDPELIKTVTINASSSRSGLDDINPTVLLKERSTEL
Experimental: (§1) The assay was performed according to the procedure described in Glaser, European Journal of Pharmacology, 281:107-111, 1995, which is incorporated by reference. Recombinant enzymes were reconstituted in buffer. The enzyme preparations were preincubated with DMSO vehicle or compounds in DMSO for 5 min at 37° C. and the human recombinant enzyme expressed in Sf9 cells.
(§2) An inhibition greater than about 50% represented significant effects of the test compound. An inhibition of about 25% to about 50% was indicative of weak to moderate effects. An inhibition less than about 25% are not considered significant and may be primarily attributable to variability of the signal around the control level.

[2] = test system: acetic acid-induced writhing responses; experiment: acetic acid writhing test (abdominal irritant test), Example 10; type: in vivo, C57/B16 mice
Experimental: This example compares the antinociception (animal equivalent of analgesia) produced by the oral administration of 5-hydroxy-7-methyloxindole vs. acetaminophen. Initial studies were performed using 10% DMSO/Cremophor™ as the vehicle. To enable a comparison with other datasets, 5-hydroxy-7-methyloxindole was subsequently tested using 6% Tween 20® reagent as the vehicle.
Male C57/B16 mice (Taconic), 8 weeks of age, were used in this study. The mice were received at Drexel University at least one week prior to testing and housed in standard polycarbonate cages with filter tops. Experiments were done in accordance with the guidelines of the National Institutes of Health and with the guidelines of the Committee for Research and Ethical Issues of IASP and were approved by the Animal Care and Use Committee of Drexel University College of Medicine. Four to five animals were housed per cage and food and water were provided ad libitum. Prior to initiation of the study, the animals were examined to assure adequate health and suitability. Mice were maintained on a 12/12 light/dark cycle and room temperature was maintained between 20 and 23° C. with a relative humidity maintained between 30% and 70%.
Compounds were administered orally 10 mL/kg, with a 30 minute pretreatment time. All compounds were tested in naïve animals. […] Each compound was dissolved in DMSO as a stock solution and mixed with Cremophor™ (1:1 v/v) before testing. The mixed solutions were diluted 1:4 with sterile water (the final concentration of DMSO/Cremophor™ reagent was 10%) immediately before administration to maximize the amount of compound in solution and improve the uniformity of any compound substance remaining in suspension. It is possible that some of the drug was in suspension at the time of administration. Each compound was initially tested in 5 mice at a dose of 300 mg/kg in the writhing test to assess their ability to alleviate abdominal pain. Based on the results of the initial test, the dose-response relationship for each active compound was determined by measuring the level of analgesia produced by at least 3 escalating doses of the test compound. The measurement of inhibition of writhing for acetaminophen and 5-hydroxy-7-methyloxindole were repeated using 6% Tween® 20 reagent as the vehicle. In this case, both compounds were clearly in suspension when administered to the animals.
A modified version of the standard abdominal irritant test was used to assess analgesia. Mice were habituated for 1 h in a transparent test box (5×5×10 inches) before any injections. Vehicle or test compound was administered p.o. (per os) 30 min prior to an intraperitoneal (i.p.) injection of 0.6% acetic acid (10 mL/kg) and the number of writhing responses (stretching of the hind limbs accompanied by a contraction of the abdominal muscles) to the acetic acid injection were counted over the subsequent 30 min period. The mice from each cage were randomly assigned to the dosing groups and the mice from each group were injected in a random order.
The one-way ANOVA was used to determine significant difference from the vehicle control treated animal. Dose response data for 5-hydroxy-7-methyloxindole was fit by non-linear regression analysis to a logit model to provide an estimate of ED50.

[3] = target: T2, COX1 (h) (Homo sapiens, UniProt P23219); experiment: COX1 enzyme assay; type: biochemical
T2 construct: host or cells: Sf9 cells
Experimental: as §1, §2

[4] = test system: opioid receptor; experiment: opioid receptor binding assay, non-selective, [3H]-naloxone; set-up: species or system rat
Experimental: The non-selective assay was performed according to the procedure described in Childers, European Journal of Pharmacology, 55:11-18, 1979, which is incorporated by reference. In summary, adult Male Sprague-Dawley rats were killed by decapitation and the brains rapidly removed and placed in ice-cold buffer. The cerebral cortex was dissected and homogenized in buffer and the homogenates were further centrifuged. The binding experiments were performed at 25° C. for 40 min. Reaction mixtures contained tissue suspension, unlabeled drug and [^3H]-naloxone (1 nM) radioligand.
as §2

[5] = solubility observed when preparing dosing vehicle; type: physicochemical
Experimental: Acetaminophen was acquired from Sigma-Aldrich Corp. (St. Louis, Mo., USA); 5-hydroxy-7-methyloxindole was provided by CaRafe Drug Innovation, LLC (Norristown, Pa., USA) in the form of a powder. […] […] This procedure provided a crude suspension, but it precipitated after some time, therefore vortexing was repeated prior to each injection. Acetaminophen was prepared in the same vehicle (6% Tween® 20 reagent) using light magnetic stirring.

[6] = test concentration 1 × 10^−5 M, human recombinant enzyme expressed in Sf9 cells

T2 sequence (P23219 24-599): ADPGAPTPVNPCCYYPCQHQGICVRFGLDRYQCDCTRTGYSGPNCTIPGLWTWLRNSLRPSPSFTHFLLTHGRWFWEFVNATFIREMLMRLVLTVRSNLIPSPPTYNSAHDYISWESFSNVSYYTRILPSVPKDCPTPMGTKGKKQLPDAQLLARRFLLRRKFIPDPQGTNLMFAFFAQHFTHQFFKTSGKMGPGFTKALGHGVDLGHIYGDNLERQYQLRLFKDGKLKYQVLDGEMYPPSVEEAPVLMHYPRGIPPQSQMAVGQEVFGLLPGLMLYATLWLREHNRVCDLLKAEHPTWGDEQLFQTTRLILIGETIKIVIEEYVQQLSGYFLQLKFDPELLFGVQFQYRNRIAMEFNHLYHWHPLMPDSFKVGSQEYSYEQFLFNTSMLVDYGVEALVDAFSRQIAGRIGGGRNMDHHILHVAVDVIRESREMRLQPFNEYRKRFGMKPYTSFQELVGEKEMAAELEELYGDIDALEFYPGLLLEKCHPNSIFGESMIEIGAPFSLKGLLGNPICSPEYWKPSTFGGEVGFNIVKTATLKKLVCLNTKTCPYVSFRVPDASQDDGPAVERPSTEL

Cc1cc(O)cc2c1NC(=O)C2 [5-hydroxy-7-methyloxindole, 5-Hydroxy-7-methyloxindole]
binding to COX2 receptor, in words [1]: binds minimally, if at all
inhibition at 10 µM [1, 6]: -6.8%
inhibition of acetic acid-induced response (writhing) ([2]; C57/B16 mice, p.o. 30 min before i.p. 0.6% acetic acid, 10% DMSO/Cremophor vehicle, 30 to 300 mg/kg, FIG. 2, 3): robust and dose-related inhibition
inhibition of acetic acid-induced response (writhing) ([2]; C57/B16 mice, p.o., 6% Tween 20 vehicle (suspension), 100 and 300 mg/kg, FIG. 5, 6): the highest dose produced an effect comparable to that observed with the DMSO/Cremophor™ vehicle
ED50 ([2]; Mus musculus, po, C57/B16 mice, p.o., 10% DMSO/Cremophor vehicle, FIG. 4, read-out: ED50 (logit model fit of dose-response)): 76 mg/kg
oral antinociceptive (analgesic) effect compared with acetaminophen ([2]; mouse model, oral, summary statement): equal to, and was slightly more potent than, acetaminophen
binding to COX1 receptor, in words [3]: binds minimally, if at all
inhibition at 10 µM [3, 6]: -29%
binding to opioid receptor, in words [4]: binds minimally, if at all
Mean Inhibition (%) ([4]; test concentration 1 × 10^−5 M, rat cerebral cortex, [3H]-naloxone 1 nM): −9.7%
solubility ([5]; general statement): low solubility
solubility in saline ([5]; saline, for dosing): not sufficiently soluble
